Test results taken from PubChem BioAssay (NCI).
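Growth conditions: 96-well plates. Treatment: test compound, 48 hours, 5 concentrations. Analysis: linear interpolation between bracketing concentrations; unreached endpoints set to highest concentration. TGI: total growth inhibition.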

Assays:
Test in all cases: NCI anticancer screen, dose series, 48 h
HOP-92 NSCLC = test system: HOP-92 NSCLC
M14 melanoma = test system: M14 melanoma
MDA-MB-435 = test system: MDA-MB-435
NCI-H23 lung = test system: NCI-H23 lung
NCI-H522 lung = test system: NCI-H522 lung
OVCAR-8 ovarian = test system: OVCAR-8 ovarian
RXF 393 renal = test system: RXF 393 renal
SF-539 CNS = test system: SF-539 CNS
SK-MEL-5 melanoma = test system: SK-MEL-5 melanoma
SN12C renal = test system: SN12C renal

Structure (SMILES) | TGI (HOP-92 NSCLC) [µM] | TGI (M14 melanoma) [µM] | TGI (MDA-MB-435) [µM] | TGI (NCI-H23 lung) [µM] | TGI (NCI-H522 lung) [µM] | TGI (OVCAR-8 ovarian) [µM] | TGI (RXF 393 renal) [µM] | TGI (SF-539 CNS) [µM] | TGI (SK-MEL-5 melanoma) [µM] | TGI (SN12C renal) [µM]
COc1ccc(/C=C2\S/C(=N/Nc3nc(-c4ccccc4)cs3)NC2=O)cc1OC | 35.2 | > 100 | 75 | 69.4 | 47.4 | 47.5 | 52 | 71.4 | 31.2 | > 100
COC(=O)C(CSSC[C@H](N/C(C)=C/C(C)=O)C(=O)OC)N/C(C)=C/C(C)=O (stereo not given in full) | > 100 | > 100 | > 100 | > 100 | 30 | 0.0686 | 52.7 | > 100 | > 100 | > 100
O=c1c2cc(I)ccc2nc(-c2cccs2)n1-c1ccc(O)cc1 | 26.9 | 29.3 | 30.8 | 36.7 | 30.1 | 29.4 | 30.8 | 14.5 | 24.3 | 40.7
COC(=O)C(Cc1ccccc1)NP(=O)(O)OCC1OC(n2cc(F)c(=O)[nH]c2=O)CC1O (stereo not given) | > 55.2 | > 100 | > 100 | > 100 | > 100 | > 100 | > 100 | 63.9 | > 100 | > 100
O=c1oc2ccccc2cc1-c1cn2cc(Cl)ccc2n1 | 36.4 | 15.2 | 0.138 | 21.1 | 0.722 | 18.6 | 9.48 | 22.2 | 19.1 | 22.4
O=c1[nH]nc(-c2ccccc2)n1/N=C/c1cccnc1 | > 100 | > 100 | > 100 | > 100 | > 100 | > 100 | > 100 | > 100 | > 100 | > 100
CCN(C(=S)N[C@H](C(=O)N[C@@H](C)C(=O)OC)C(C)C)c1ccccc1 | > 100 | > 100 | > 100 | > 100 | > 100 | > 100 | > 100 | 84.3 | > 100 | > 100
C(CCCCc1nnc(N2CCCCC2)o1)CCCc1nnc(N2CCCCC2)o1 | > 100 | > 100 | > 100 | > 100 | > 100 | > 100 | > 100 | > 100 | > 100 | > 100
COC(=O)c1c(O)ccc2c1c1c(n2Cc2cccc(C)c2)C(=O)c2ccccc2C1=O | 19.8 | 32.3 | 23.3 | 26 | 26.8 | 21.9 | 26.1 | 28.2 | 26.3 | 22.2
O=C1/C(=N\S(=O)(=O)c2ccccc2)C([n+]2ccc(Cc3ccccc3)cc2)=C([O-])c2ccccc21 | 12.7 | 2.68 | 0.377 | 1.36 | 2.11 | 8.06 | 6.59 | 3.45 | 0.302 | 3.12
COc1c(O)cc(O)c2c(=O)cc(-c3ccccc3)oc12 | > 100 | > 100 | > 100 | > 100 | > 100 | > 100 | 42.7 | > 100 | > 100 | > 100
CC(=O)c1c(C(F)(F)F)n([O-])c2cc(Cl)c(Cl)cc2[n+]1=O | 0.88 | 2.61 | 2.67 | 2.71 | 0.368 | 1.84 | 2.51 | 2.46 | 2.06 | 2.69
O=C(Nc1nc2ccccc2s1)c1cc([N+](=O)[O-])ccc1Cl | > 38.9 | > 47.8 | > 100 | > 43.4 | 11.6 | > 45.4 | 15.9 | 28.5 | 25.1 | > 100
CN1CCN(CCCBr)CC1 | > 100 | > 100 | > 100 | > 100 | > 100 | > 100 | > 100 | > 100 | > 100 | > 100
CCOc1cc(C2CC(c3ccc(NS(=O)(=O)c4cc([N+](=O)[O-])ccc4C)cc3)=NN2c2ccc([N+](=O)[O-])cc2[N+](=O)[O-])ccc1O (stereo not given) | 29.3 | 31.6 | > 100 | 42.9 | 34.2 | 49 | 27 | 25.5 | 23.1 | 9.97
COc1ccc(NC(C)=O)cc1N1C(=O)/C(=C\c2cc(OC)c(OC)c(OC)c2)SC1c1ccccc1 (stereo not given) | > 100 | > 100 | > 100 | > 100 | > 100 | > 100 | > 100 | > 100 | > 100 | > 100
CC1(C)CC(C)(C)C1=NNC(N)=O | > 100 | > 100 | > 100 | > 100 | > 100 | > 100 | > 100 | > 100 | > 100 | > 100
COc1ccc(C)cc1Nc1nnc(-c2ccccc2N)s1 | > 100 | > 100 | > 100 | > 100 | 58.7 | > 100 | > 100 | > 100 | 29.4 | > 100
